Assays:
B-Raf^V600E kinase = biological target: T1, B-Raf^V600E kinase (Homo sapiens, UniProt P15056, V600E); test: B-Raf V600E kinase assay ([33P] incorporation into MEK1 K97R); type: biochemical; settings: recombinant B-Raf^V600E, 8 μM ATP, 30 min, 30° C.; read-out: IC50 ranking against B-Raf^V600E kinase
T1 construct: purchased Upstate Biotechnology
Description: (§1) Inhibition of kinase activity by a test compound disclosed herein was estimated by quantifying the amount of [^33P] incorporation of a substrate in the presence of the test compound. Standard assay conditions were 5 ng of recombinant B-Raf^V600E kinase (Upstate Biotechnology) with 500 ng MEK1 (K97R) in assay buffer (8 μM ATP, 0.5 μCi [^33P]ATP (specific activity 3000 Ci/mmol, PerkinElmer), 50 mM Tris/HCl (pH 7.5), and 1 mM EGTA, 1 mM Na3VO4, 1% 2-mercaptoethanol, 0.1% Brij 35, and 0.2 mg/ml BSA), and the test compound (diluted with 4% DMSO) or DMSO alone (as a control) in a final volume of 25 μL. Reactions were incubated at 30° C. for 30 min and stopped by adding 3% phosphoric acid, harvested onto a 96-well GF/B UniFilter (PerkinElmer) using a unifilter harvester (PerkinElmer), and counted with a TopCount microplate scintillation counter (PerkinElmer). The IC50 values of inhibitors were determined after carrying out assays at 3-fold serially diluted concentrations of each compound in duplication. The results were analyzed using linear regression software (GraphPad Prism 4; GraphPad Software Inc.).

B-Raf kinase = biological target: T2, B-Raf kinase (Homo sapiens, UniProt P15056); test: B-Raf kinase assay ([33P] incorporation into MEK1 K97R); type: biochemical; settings: recombinant B-Raf, 8 μM ATP, 30 min, 30° C.; read-out: IC50 ranking against B-Raf kinase
T2 construct: purchased Upstate Biotechnology
Description: Inhibition of kinase activity by a test compound disclosed herein was estimated by quantifying the amount of [^33P] incorporation of a substrate in the presence of the test compound. Standard assay conditions were 5 ng of recombinant B-Raf kinase (Upstate Biotechnology) with 500 ng MEK1(Map-erk kinase; K97R) in the assay buffer (8 μM ATP, 0.5 μCi [^33P]ATP (specific activity 3000 Ci/mmol, PerkinElmer), 50 mM Tris/HCl (pH 7.5), and 1 mM EGTA, 1 mM Na3VO4, 1% 2-mercaptoethanol, 0.1% Brij 35, and 0.2 mg/ml BSA) in a final volume of 25 μL. Reactions were incubated at 30° C. for 30 min and stopped by adding 3% phosphoric acid, harvested onto a 96-well GF/B UniFilter (PerkinElmer) using a unifilter harvester (PerkinElmer), and counted with a TopCount microplate scintillation counter (PerkinElmer). The IC50 values of inhibitors were determined after carrying out assays at 3-fold serially diluted concentrations of each compound in duplication. The results were analyzed using linear regression software (GraphPad Prism 4; GraphPad Software Inc.).

[1] = test system: SK-MEL-2 melanoma cell with wild type B-Raf (B-Raf^wt) and NRAS^Q61R mutation; test: Cell proliferation assay (CELLTITER 96), SK-MEL-2; type: cell-based; settings: Homo sapiens; SK-MEL-2, 72 hours; given as bound; read-out: Cytotoxicity (IC50 Ranking) SK-MEL-2 (NRAS^Q61R, B-Raf^wt)
Description: (§2) Inhibition of cell growth by compounds was measured using CELLTITER 96® assay. The cytotoxicity of compounds was evaluated in B-Raf^V600E mutant A375 melanoma cell, B-Raf^V600E mutant COLO205 colon cancer cell, and SK-MEL-2 melanoma cell with wild type B-Raf (B-Raf^wt) and NRASQ^Q61R mutation. A375 and COLO205 cell line were cultured in DMEM containing 10% FCS and incubated at 37° C. in 5% CO2 atmosphere. SK-MEL-2 cell line was cultured in MEM containing 10% FCS and incubated at 37° C. in 5% CO2 atmosphere. A375, COLO205 and SK-MEL-2 cell were seeded into 96-well plates at 2000, 2000, and 4000 cells/well, respectively, and allowed to adhere for overnight. Then, these seeded cells were treated with increasing concentrations of the test compounds and incubated for another 72 hours. At the end of the incubation, CELLTITER 96® Aqueous One Solution Reagent (Promega) was added and incubated for 4 hours. Cell viability was determined by measuring absorbance at 490 nm using EMAX® microplate reader (Molecular Devices).
(§3) The 50% inhibitory concentration (IC50) value was calculated by plotting the percentage of growth inhibition against the concentration of compound, using GraphPad Prism5 software for curve fitting.

C-Raf kinase = biological target: T3, C-Raf kinase (Homo sapiens, UniProt P04049); test: C-Raf kinase assay ([33P] incorporation into MEK1 K97R); type: biochemical; settings: recombinant C-Raf, 8 μM ATP, 30 min, 30° C.; read-out: IC50 ranking against C-Raf kinase
T3 construct: purchased Upstate Biotechnology
Description: as §1, with “were 2” for “were 5”, “recombinant C-Raf” for “recombinant B-Raf^V600E”, “ng MEK1(K97R)” for “ng MEK1 (K97R)”

[2] = test system: B-Raf^V600E mutant A375 melanoma cell; test: Cell proliferation assay (CELLTITER 96), A375; type: cell-based; settings: Homo sapiens, A-375; A375, 72 hours; read-out: Cytotoxicity (IC50 Ranking) A375 (B-Raf^V600E)
Description: as §2, §3

[3] = test system: B-Raf^V600E mutant COLO205 colon cancer cell; test: Cell proliferation assay (CELLTITER 96), COLO205; type: cell-based; settings: Homo sapiens, COLO 205; COLO205, 72 hours; read-out: Cytotoxicity (IC50 Ranking) COLO205 (B-Raf^V600E)
Description: as §2, §3

T3 sequence (P04049 whole entry): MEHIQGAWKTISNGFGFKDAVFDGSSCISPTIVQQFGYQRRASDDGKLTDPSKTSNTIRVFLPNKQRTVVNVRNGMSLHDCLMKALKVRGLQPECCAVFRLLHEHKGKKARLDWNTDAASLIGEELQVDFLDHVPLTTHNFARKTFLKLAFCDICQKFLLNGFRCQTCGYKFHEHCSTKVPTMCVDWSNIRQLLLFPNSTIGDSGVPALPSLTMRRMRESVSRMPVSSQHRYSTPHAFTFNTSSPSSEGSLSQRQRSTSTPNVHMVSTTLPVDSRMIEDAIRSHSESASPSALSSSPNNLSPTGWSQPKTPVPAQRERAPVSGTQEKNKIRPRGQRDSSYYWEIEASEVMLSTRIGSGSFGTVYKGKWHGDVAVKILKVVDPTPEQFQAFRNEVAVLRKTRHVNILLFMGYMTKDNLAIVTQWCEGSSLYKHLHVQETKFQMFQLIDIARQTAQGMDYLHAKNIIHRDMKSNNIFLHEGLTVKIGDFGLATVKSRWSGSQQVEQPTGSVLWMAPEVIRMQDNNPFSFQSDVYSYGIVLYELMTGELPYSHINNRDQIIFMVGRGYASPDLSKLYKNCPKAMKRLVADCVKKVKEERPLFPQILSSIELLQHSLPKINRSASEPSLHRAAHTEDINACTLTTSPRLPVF
T1 sequence (P15056 whole entry V600E): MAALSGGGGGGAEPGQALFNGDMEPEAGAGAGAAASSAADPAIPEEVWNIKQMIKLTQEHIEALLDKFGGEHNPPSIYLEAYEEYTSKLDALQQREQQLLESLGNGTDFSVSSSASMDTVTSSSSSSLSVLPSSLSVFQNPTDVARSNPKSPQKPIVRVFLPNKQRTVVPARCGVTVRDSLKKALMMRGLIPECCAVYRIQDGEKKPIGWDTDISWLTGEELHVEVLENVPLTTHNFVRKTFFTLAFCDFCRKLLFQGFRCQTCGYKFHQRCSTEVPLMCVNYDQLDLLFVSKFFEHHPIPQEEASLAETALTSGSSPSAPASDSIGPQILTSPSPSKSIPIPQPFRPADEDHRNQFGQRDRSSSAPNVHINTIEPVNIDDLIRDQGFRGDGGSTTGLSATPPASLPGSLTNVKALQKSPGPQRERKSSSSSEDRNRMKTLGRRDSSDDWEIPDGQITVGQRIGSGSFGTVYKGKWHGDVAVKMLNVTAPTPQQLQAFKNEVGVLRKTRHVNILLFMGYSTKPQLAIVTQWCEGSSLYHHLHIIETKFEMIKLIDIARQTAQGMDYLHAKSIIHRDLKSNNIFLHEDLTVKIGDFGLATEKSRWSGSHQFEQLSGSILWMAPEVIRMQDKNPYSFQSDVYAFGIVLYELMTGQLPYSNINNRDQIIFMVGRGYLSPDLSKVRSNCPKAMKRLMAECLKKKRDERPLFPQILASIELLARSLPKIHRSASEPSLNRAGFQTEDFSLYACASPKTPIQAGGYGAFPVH
T2 sequence (P15056 whole entry): as the sequence (P15056 whole entry V600E) above, with E600V counted along it

Structure (SMILES)	IC50 (B-Raf^V600E kinase) [nM]	IC50 (B-Raf kinase) [nM]	IC50 [1] [nM]	IC50 (C-Raf kinase) [nM]	IC50 [2] [nM]	IC50 [3] [nM]
CCCS(=O)(=O)Nc1ccc(F)c(Nc2ccc3ncc(Nc4c(F)ccc(NS(=O)(=O)CCC)c4F)nc3c2)c1F [compound 1, N1-3-[(3-{2,6-difluoro-3-[(propylsulfonyl)amino]anilino}-6-quinoxalinyl)amino]-2,4-difluorophenyl-1-propanesulfonamide]	< 300	< 300	> 10000	< 300	1000 to 10000	1000 to 10000
CCCS(=O)(=O)Nc1ccc(F)c(Nc2ccc3ncc(Nc4c(F)cccc4F)nc3c2)c1F [compound 2, N1-(3-{[3-(2,6-difluoroanilino)-6-quinoxalinyl]amino}-2,4-difluorophenyl)-1-propanesulfonamide]	< 300	< 300	> 10000	< 300	300 to 1000	300 to 1000
CCCS(=O)(=O)Nc1ccc(F)c(Nc2ccc3ncc(OC)nc3c2N)c1F [compound 3, N1-{3-[(5-amino-3-methoxy-6-quinoxalinyl)amino]-2,4-difluorophenyl}-1-propanesulfonamide]	300 to 1000	300 to 1000	–	300 to 1000	–	–
CCCS(=O)(=O)Nc1ccc(F)c(Nc2ccc3ncc(OC)nc3c2[N+](=O)[O-])c1F [compound 4, N1-{2,4-difluoro-3-[(3-methoxy-5-nitro-6-quinoxalinyl)amino]phenyl}-1-propanesulfonamide]	< 300	< 300	> 10000	< 300	< 300	< 300
COc1cnc2ccc(Nc3c(F)ccc(NS(=O)(=O)CCCF)c3F)c([N+](=O)[O-])c2n1 [compound 5, N1-{2,4-difluoro-3-[(3-methoxy-5-nitro-6-quinoxalinyl)amino]phenyl}-3-fluoro-1-propanesulfonamide]	< 300	< 300	> 10000	< 300	< 300	< 300
CCCS(=O)(=O)Nc1ccc(F)c(Nc2ccc3ncc(OCCN4CCOCC4)nc3c2[N+](=O)[O-])c1F [compound 6, N1-(2,4-difluoro-3-{[3-(2-morpholinoethoxy)-5-nitro-6-quinoxalinyl]amino}phenyl)-1-propanesulfonamide]	< 300	< 300	> 10000	< 300	< 300	< 300
CCCS(=O)(=O)Nc1ccc(F)c(Nc2ccc3ncc(OCCOC)nc3c2[N+](=O)[O-])c1F [compound 7, N1-(2,4-difluoro-3-[3-(2-methoxyethoxy)-5-nitro-6-quinoxalinyl]aminophenyl)-1-propanesulfonamide]	< 300	< 300	> 10000	< 300	< 300	< 300
CCCS(=O)(=O)Nc1ccc(F)c(Nc2ccc3ncc(NC(=O)C4CC4)nc3c2)c1F [compound 8, N1-(7-{2,6-difluoro-3-[(propylsulfonyl)amino]anilino}-2-quinoxalinyl)-1-cyclopropanecarboxamide]	300 to 1000	300 to 1000	> 10000	300 to 1000	1000 to 10000	1000 to 10000
CCCS(=O)(=O)Nc1ccc(F)c(Nc2ccc3ncc(OCCN(C)C)nc3c2[N+](=O)[O-])c1F [compound 9, N1-[3-({3-[2-(dimethylamino)ethoxy]-5-nitro-6-quinoxalinyl}amino)-2,4-difluorophenyl]-1-propanesulfonamide]	< 300	< 300	> 10000	< 300	< 300	< 300
CCCS(=O)(=O)Nc1ccc(F)c(Nc2ccc3ncc(OC)nc3c2C#N)c1F [compound 10, N1-{3-[(5-cyano-3-methoxy-6-quinoxalinyl)amino]-2,4-difluorophenyl}-1-propanesulfonamide]	< 300	< 300	> 10000	< 300	< 300	< 300
CCCS(=O)(=O)Nc1ccc(F)c(Nc2ccc3ncc(Nc4ccccc4F)nc3c2)c1F [compound 11, N1-(2,4-difluoro-3-{[3-(2-fluoroanilino)-6-quinoxalinyl]amino}phenyl)-1-propanesulfonamide]	< 300	< 300	> 10000	< 300	300 to 1000	1000 to 10000
CCCS(=O)(=O)Nc1ccc(F)c(Nc2ccc3ncc(Nc4cccnc4)nc3c2)c1F [compound 12, N1-(2,4-difluoro-3-{[3-(3-pyridylamino)-6-quinoxalinyl]amino}phenyl)-1-propanesulfonamide]	< 300	< 300	> 10000	< 300	1000 to 10000	300 to 1000
CCCS(=O)(=O)Nc1ccc(F)c(Nc2ccc3ncc(Nc4ccc(F)cc4F)nc3c2)c1F [compound 13, N1-(3-{[3-(2,4-difluoroanilino)-6-quinoxalinyl]amino}-2,4-difluorophenyl)-1-propanesulfonamide]	< 300	< 300	> 10000	< 300	300 to 1000	1000 to 10000
CCCS(=O)(=O)Nc1ccc(F)c(Nc2cc3nc(OC)cnc3cc2C)c1F [compound 32, N-(2,4-difluoro-3-(3-methoxy-7-methylquinoxalin-6-ylamino)phenyl)propane-1-sulfonamide]	–	1000 to 10000	–	–	–	–
CCCS(=O)(=O)Nc1cc(Nc2ccc3ncc(OC)nc3c2C#N)ccc1C [compound 45, N-(5-(5-cyano-3-methoxyquinoxalin-6-ylamino)-2-methylphenyl)propane-1-sulfonamide]	1000 to 10000	1000 to 10000	–	1000 to 10000	–	–
